Values joined by “and” are separate entries in the source; they are usually repeats but may differ in a detail not shown here. Equal entries are not always repeated.
System: 354836-022-R-J1-PDC multicell spheroid viability
Assay: Anticancer human tumor 354836-022-R-J1-PDC patient-derived head and neck squamous cell carcinoma cell line growth inhibition [PI3K]
Details: for viability, T/C: stronger effect = lower value
Text: Combinatorial screen of targeted agents with the PI3K inhibitors inavolisib, alpelisib, duvelisib, and copanlisib in multi-cell type tumor spheroids
A high-throughput screen of multi-cell type tumor spheroids was designed to identify active combinations of targeted small molecules and PI3K pathway inhibitors. Complex spheroids include a stromal component modeled by human endothelial cells (HUVEC) and fibroblasts modeled by human mesenchymal stem cells (MSCs). The concentration ranges selected for each drug and investigational agent were based upon clinically achievable concentrations if the clinical Cmax of the agent was known.
Compounds. The drugs and investigational agents: inavolisib (NSC800729), alpelisib (NSC765974), duvelisib (NSC772469), copanlisib (NSC816437), ipatasertib (NSC767898), afuresertib (NSC778305), talazoparib (NSC767125), sapanisertib (NSC764658), selumetinib (NSC741078), tovorafenib (DAY101, NSC766906), vemurafenib (NSC761431), ravoxertinib (NSC781343), sotorasib (NSC818433), MRTX1133 (NSC 836407), abemaciclib (NSC 768073), palbociclib (NSC758247), venetoclax (NSC 766270), SY5609 (NSC837396), enzalutamide (NSC755605), and darolutamide (NSC825331), were obtained from the National Cancer Institute (NCI) Developmental Therapeutics Program Chemical Repository. The FDA-approved anticancer drug set is available from the NCI Developmental Therapeutics Program. […] The stock solutions were prepared in dimethyl sulfoxide (DMSO, Sigma-Aldrich, St. Louis, MO, cat. D2650) at 800-fold the tested concentration and stored at -70 degrees C prior to their use. All drugs and investigational agents were tested over a range starting from a high concentration at or near the clinical Cmax and decreasing in half-log increments. If the clinical Cmax for an agent had not been determined, the highest concentration tested was 10 microM.
Cell Culture. All cells were maintained in an incubator at 37 degrees C and 5% CO2 with 95% humidity. The PDC lines were cultured according to standard operating procedures established by the NCI PDMR (https://pdmr.cancer.gov/sops/default.htm). All PDCs were thawed and cultured in Matrigel-coated flasks prepared with a working solution of 1X Ham's F-12 nutrient mix, without supplementation (Invitrogen, Waltham, MA, cat. 11765054), 100 U/mL penicillin-streptomycin (Invitrogen, cat. 15140122), and 2.5% Matrigel (Corning Inc., Corning, NY, cat. 354248) for the first three passages. The 354836-022-R-J1-PDC, 475296-252-R-J1-PDC, and 997726-040-R-J2-PDC lines were cultured in 6A media, which includes advanced DMEM/F-12 (Thermo Fisher Scientific, cat. 12634028), 10 mM HEPES (Thermo Fisher Scientific, cat. 15630080), 1X GlutaMAX supplement (Thermo Fisher Scientific, cat. 35050061), 0.1 mg/mL primocin (InvivoGen, San Diego, CA, cat. ant-pm-2), 10% defined fetal bovine serum, heat inactivated (HyClone Laboratories Inc., Logan, UT, cat. SH30070.03HI), 50% L-WRN conditioned media (ATCC, cat. CRL-3276), 1.25 mM N-Acetyl-L-cysteine (Sigma-Aldrich, cat. A9165), 10 mM nicotinamide (Sigma-Aldrich, cat. N0636), 1X B-27 supplement (Thermo Fisher Scientific, cat. 17504044), 1X N-2 supplement (Thermo Fisher Scientific, cat. 17502048), and 10 microM Y-27632 dihydrochloride (Tocris Bioscience, Bristol, United Kingdom, cat. 1254). The 624824-186-R-J2-PDC line was cultured in 6C/Colon 1B media, which includes all 6A media components plus 50 ng/mL human EGF recombinant protein (Thermo Fisher Scientific, cat. PHG0311). […]

[1] = curve of first compound, second compound 0.0316 µM
[2] = curve of first compound, second compound 0.1 µM
[3] = curve of first compound, second compound 0.316 µM
[4] = curve of first compound, second compound 1 µM
[5] = curve of first compound, second compound 3.16 µM
[6] = curve of first compound, second compound 10 µM
[7] = second compound 0.0316 µM, first compound 0.0316 µM
[8] = second compound 0.0316 µM, first compound 0.1 µM
[9] = second compound 0.1 µM, first compound 0.0316 µM
[10] = second compound 0.1 µM, first compound 0.1 µM
[11] = second compound 0.316 µM, first compound 0.0316 µM
[12] = second compound 0.316 µM, first compound 0.1 µM
[13] = second compound 1 µM, first compound 0.0316 µM
[14] = second compound 1 µM, first compound 0.1 µM
[15] = second compound 3.16 µM, first compound 0.0316 µM
[16] = second compound 3.16 µM, first compound 0.1 µM
[17] = second compound 10 µM, first compound 0.0316 µM
[18] = second compound 10 µM, first compound 0.1 µM
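Also: spheroids exposed to agents for seven days before the viability read.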

With CC(=O)c1c(C)c2cnc(Nc3ccc(N4CCNCC4)cn3)nc2n(C2CCCC2)c1=O + CC(Nc1ncnc2nc[nH]c12)c1cc2cccc(Cl)c2c(=O)n1-c1ccccc1 the IC50 [1] was > 100 nM, the IC50 [2] was > 100 nM and the IC50 [3] was > 100 nM. For the same compound, the IC50 [4] was > 100 nM, the IC50 [5] was > 100 nM and the IC50 [6] was > 100 nM. For the same compound, the viability, T/C (second compound 0.0316 µM, first compound 0.000316 µM) was 96.8%, the viability, T/C (second compound 0.0316 µM, first compound 0.001 µM) was 110% and the viability, T/C (second compound 0.0316 µM, first compound 0.00316 µM) was 108%. It also gave a viability, T/C (second compound 0.0316 µM, first compound 0.01 µM) of 103%, a viability, T/C [7] of 97.7% and a viability, T/C [8] of 99.5%. The viability, T/C (second compound 0.1 µM, first compound 0.000316 µM) was 89.4%, the viability, T/C (second compound 0.1 µM, first compound 0.001 µM) was 99.3% and the viability, T/C (second compound 0.1 µM, first compound 0.00316 µM) was 94.9%. It also gave a viability, T/C (second compound 0.1 µM, first compound 0.01 µM) of 91.5%, a viability, T/C [9] of 105% and a viability, T/C [10] of 101%. The viability, T/C (second compound 0.316 µM, first compound 0.000316 µM) was 90%, the viability, T/C (second compound 0.316 µM, first compound 0.001 µM) was 98.8% and the viability, T/C (second compound 0.316 µM, first compound 0.00316 µM) was 100%. The viability, T/C (second compound 0.316 µM, first compound 0.01 µM) was 100%, the viability, T/C [11] was 111% and the viability, T/C [12] was 113%. The viability, T/C (second compound 1 µM, first compound 0.000316 µM) was 82.2%, the viability, T/C (second compound 1 µM, first compound 0.001 µM) was 96.7% and the viability, T/C (second compound 1 µM, first compound 0.00316 µM) was 97.2%. The viability, T/C (second compound 1 µM, first compound 0.01 µM) was 110%, the viability, T/C [13] was 96.8% and the viability, T/C [14] was 91.6%. For the same compound, the viability, T/C (second compound 3.16 µM, first compound 0.000316 µM) was 108%, the viability, T/C (second compound 3.16 µM, first compound 0.001 µM) was 107% and the viability, T/C (second compound 3.16 µM, first compound 0.00316 µM) was 98.5%. The viability, T/C (second compound 3.16 µM, first compound 0.01 µM) was 104%, the viability, T/C [15] was 88.3% and the viability, T/C [16] was 90.2%. For the same compound, the viability, T/C (second compound 10 µM, first compound 0.000316 µM) was 89.8%, the viability, T/C (second compound 10 µM, first compound 0.001 µM) was 95.2% and the viability, T/C (second compound 10 µM, first compound 0.00316 µM) was 91.1%. It also gave a viability, T/C (second compound 10 µM, first compound 0.01 µM) of 109%, a viability, T/C [17] of 98.8% and a viability, T/C [18] of 91.5%.
Cn1nccc1Nc1nccc(-c2ccn(C(CO)c3ccc(Cl)c(F)c3)c(=O)c2)n1 (stereo unspecified) + Cc1nc(NC(=O)N2CCCC2C(N)=O)sc1-c1ccnc(C(C)(C)C(F)(F)F)c1 was tested, and the IC50 [1] was > 10000 nM, the IC50 [2] was > 10000 nM and the IC50 [3] was > 10000 nM. The IC50 [4] was > 10000 nM, the IC50 [5] was > 10000 nM and the IC50 [6] was < 31.6 nM. The viability, T/C [7] was 100%, the viability, T/C [8] was 91% and the viability, T/C (second compound 0.0316 µM, first compound 0.316 µM) was 101%. It also gave a viability, T/C (second compound 0.0316 µM, first compound 1 µM) of 92.5%, a viability, T/C (second compound 0.0316 µM, first compound 3.16 µM) of 97.2% and a viability, T/C (second compound 0.0316 µM, first compound 10 µM) of 95.1%. The viability, T/C [9] was 99.2%, the viability, T/C [10] was 92.5% and the viability, T/C (second compound 0.1 µM, first compound 0.316 µM) was 102%. For the same compound, the viability, T/C (second compound 0.1 µM, first compound 1 µM) was 88.7%, the viability, T/C (second compound 0.1 µM, first compound 3.16 µM) was 101% and the viability, T/C (second compound 0.1 µM, first compound 10 µM) was 91.3%. The viability, T/C [11] was 95%, the viability, T/C [12] was 91.3% and the viability, T/C (second compound 0.316 µM, first compound 0.316 µM) was 87.7%. The viability, T/C (second compound 0.316 µM, first compound 1 µM) was 89.3%, the viability, T/C (second compound 0.316 µM, first compound 3.16 µM) was 108% and the viability, T/C (second compound 0.316 µM, first compound 10 µM) was 101%. The viability, T/C [13] was 76.2%, the viability, T/C [14] was 89.7% and the viability, T/C (second compound 1 µM, first compound 0.316 µM) was 77.9%. For the same compound, the viability, T/C (second compound 1 µM, first compound 1 µM) was 79.1%, the viability, T/C (second compound 1 µM, first compound 3.16 µM) was 100% and the viability, T/C (second compound 1 µM, first compound 10 µM) was 90.3%. The viability, T/C [15] was 58.4%, the viability, T/C [16] was 67.5% and the viability, T/C (second compound 3.16 µM, first compound 0.316 µM) was 61.9%. For the same compound, the viability, T/C (second compound 3.16 µM, first compound 1 µM) was 61.8%, the viability, T/C (second compound 3.16 µM, first compound 3.16 µM) was 72.4% and the viability, T/C (second compound 3.16 µM, first compound 10 µM) was 50.1%. For the same compound, the viability, T/C [17] was 35.6%, the viability, T/C [18] was 41.5% and the viability, T/C (second compound 10 µM, first compound 0.316 µM) was 31.4%. For the same compound, the viability, T/C (second compound 10 µM, first compound 1 µM) was 33.7%, the viability, T/C (second compound 10 µM, first compound 3.16 µM) was 25.8% and the viability, T/C (second compound 10 µM, first compound 10 µM) was 14.7%.
In the case of CC(=O)c1c(C)c2cnc(Nc3ccc(N4CCNCC4)cn3)nc2n(C2CCCC2)c1=O, the viability, T/C (compound 0.000316 µM) is reported as 105% (2×) and 101% and 106%, the viability, T/C (compound 0.001 µM) is reported as 104% [middle of 4 runs] and the viability, T/C (compound 0.00316 µM) is reported as 105% [middle of 4 runs]. The viability, T/C (compound 0.01 µM) was 102% [middle of 4 runs], the viability, T/C (compound 0.0316 µM) was 103% [middle of 4 runs] and the viability, T/C (compound 0.1 µM) was 104% [middle of 4 runs]. For the same compound, the IC50 (curve of compound) was > 100 nM.
